According to patent US20100160445A1, “Synergistic Mixtures of OPP and DGH” (priority 2002, published 2010):
Structures can show the parent of a compound that is named as a salt.

Tested on: wild strain bacteria isolated from previously contaminated systems
Experiment: In-Can Preservation Test of paint samples; as to Microbial growth, 1st Inoculation, 1st sub-column: key: 4 = Heavy Microbial Growth; 3 = Moderate Microbial Growth; 2 = Slight Microbial Growth; 1 = Trace Microbial Growth; 0 = No Microbial Growth; as to Microbial growth, 1st Inoculation, 2nd sub-column: key: 4 = Heavy Microbial Growth; 3 = Moderate Microbial Growth; 2 = Slight Microbial Growth; 1 = Trace Microbial Growth; 0 = No Microbial Growth; as to Microbial growth, 2nd Inoculation, 1st sub-column: key: 4 = Heavy Microbial Growth; 3 = Moderate Microbial Growth; 2 = Slight Microbial Growth; 1 = Trace Microbial Growth; 0 = No Microbial Growth; as to Microbial growth, 2nd Inoculation, 2nd sub-column: key: 4 = Heavy Microbial Growth; 3 = Moderate Microbial Growth; 2 = Slight Microbial Growth; 1 = Trace Microbial Growth; 0 = No Microbial Growth
Format: cell-based
Details: for Effective Preservative (ppm): two inoculation challenge
Protocol: Preservation Testing was performed on the three paint samples: Acrylic Flat, Acrylic and Vinyl Acrylic. Each sample was treated with various levels OPP, DGH individually and a mixture of OPP and DGH. All samples were then inoculated with wild strain bacteria isolated from previously contaminated systems. Following the initial inoculation, the samples were reinoculated on day 7. This testing scenario best simulates what happens in a “real world” situation. […]

[1] = Table 2 paint (Acrylic Flat / Vinyl Acrylic Flat), 250 ppm
[2] = Table 2 paint (Acrylic Flat / Vinyl Acrylic Flat), 500 ppm
[3] = Table 2 paint (Acrylic Flat / Vinyl Acrylic Flat), 750 ppm
[4] = Table 2 paint (Acrylic Flat / Vinyl Acrylic Flat), 1000 ppm
[5] = Table 2 paint (Acrylic Flat / Vinyl Acrylic Flat), 1500 ppm
[6] = Table 2 paint (Acrylic Flat / Vinyl Acrylic Flat), 2000 ppm
[7] = Table 3 paint (Vinyl Acrylic Flat / Acrylic Flat), 250 ppm
[8] = Table 3 paint (Vinyl Acrylic Flat / Acrylic Flat), 500 ppm
[9] = Table 3 paint (Vinyl Acrylic Flat / Acrylic Flat), 750 ppm
[10] = Table 3 paint (Vinyl Acrylic Flat / Acrylic Flat), 1000 ppm
[11] = Table 3 paint (Vinyl Acrylic Flat / Acrylic Flat), 1500 ppm
[12] = Table 3 paint (Vinyl Acrylic Flat / Acrylic Flat), 2000 ppm

Compound: CCCCCCCCCCCCNC(=N)N [DGH, Dodecylguanidine Hydrochloride]
- Effective Preservative (ppm) (Acrylic Flat paint): 1500 ppm
- Microbial growth, 1st Inoculation, 1st sub-column (Acrylic paint, 250 ppm): 3
- Microbial growth, 1st Inoculation, 2nd sub-column (Acrylic paint, 250 ppm): 3
- Microbial growth, 2nd Inoculation, 1st sub-column (Acrylic paint, 250 ppm): 3
- Microbial growth, 2nd Inoculation, 2nd sub-column (Acrylic paint, 250 ppm): 3
- Microbial growth, 1st Inoculation, 1st sub-column (Acrylic paint, 500 ppm): 3
- Microbial growth, 1st Inoculation, 2nd sub-column (Acrylic paint, 500 ppm): 3
- Microbial growth, 2nd Inoculation, 1st sub-column (Acrylic paint, 500 ppm): 2
- Microbial growth, 2nd Inoculation, 2nd sub-column (Acrylic paint, 500 ppm): 3
- Microbial growth, 1st Inoculation, 1st sub-column (Acrylic paint, 750 ppm): 3
- Microbial growth, 1st Inoculation, 2nd sub-column (Acrylic paint, 750 ppm): 2
- Microbial growth, 2nd Inoculation, 1st sub-column (Acrylic paint, 750 ppm): 2
- Microbial growth, 2nd Inoculation, 2nd sub-column (Acrylic paint, 750 ppm): 2
- Microbial growth, 1st Inoculation, 1st sub-column (Acrylic paint, 1000 ppm): 3
- Microbial growth, 1st Inoculation, 2nd sub-column (Acrylic paint, 1000 ppm): 2
- Microbial growth, 2nd Inoculation, 1st sub-column (Acrylic paint, 1000 ppm): 1
- Microbial growth, 2nd Inoculation, 2nd sub-column (Acrylic paint, 1000 ppm): 1
- Microbial growth, 1st Inoculation, 1st sub-column (Acrylic paint, 1500 ppm): 3
- Microbial growth, 1st Inoculation, 2nd sub-column (Acrylic paint, 1500 ppm): 0
- Microbial growth, 2nd Inoculation, 1st sub-column (Acrylic paint, 1500 ppm): 1
- Microbial growth, 2nd Inoculation, 2nd sub-column (Acrylic paint, 1500 ppm): 0
- Microbial growth, 1st Inoculation, 1st sub-column (Acrylic paint, 2000 ppm): 3
- Microbial growth, 1st Inoculation, 2nd sub-column (Acrylic paint, 2000 ppm): 0
- Microbial growth, 2nd Inoculation, 1st sub-column (Acrylic paint, 2000 ppm): 1
- Microbial growth, 2nd Inoculation, 2nd sub-column (Acrylic paint, 2000 ppm): 0
- Effective Preservative (ppm) (Acrylic paint): 2000 ppm
- Microbial growth, 1st Inoculation, 1st sub-column [1]: 3
- Microbial growth, 1st Inoculation, 2nd sub-column [1]: 2
- Microbial growth, 2nd Inoculation, 1st sub-column [1]: 3
- Microbial growth, 2nd Inoculation, 2nd sub-column [1]: 2
- Microbial growth, 1st Inoculation, 1st sub-column [2]: 3
- Microbial growth, 1st Inoculation, 2nd sub-column [2]: 2
- Microbial growth, 2nd Inoculation, 1st sub-column [2]: 2
- Microbial growth, 2nd Inoculation, 2nd sub-column [2]: 2
- Microbial growth, 1st Inoculation, 1st sub-column [3]: 3
- Microbial growth, 1st Inoculation, 2nd sub-column [3]: 2
- Microbial growth, 2nd Inoculation, 1st sub-column [3]: 2
- Microbial growth, 2nd Inoculation, 2nd sub-column [3]: 2
- Microbial growth, 1st Inoculation, 1st sub-column [4]: 3
- Microbial growth, 1st Inoculation, 2nd sub-column [4]: 2
- Microbial growth, 2nd Inoculation, 1st sub-column [4]: 3
- Microbial growth, 2nd Inoculation, 2nd sub-column [4]: 2
- Microbial growth, 1st Inoculation, 1st sub-column [5]: 3
- Microbial growth, 1st Inoculation, 2nd sub-column [5]: 2
- Microbial growth, 2nd Inoculation, 1st sub-column [5]: 3
- Microbial growth, 2nd Inoculation, 2nd sub-column [5]: 1
- Microbial growth, 1st Inoculation, 1st sub-column [6]: 3
- Microbial growth, 1st Inoculation, 2nd sub-column [6]: 0
- Microbial growth, 2nd Inoculation, 1st sub-column [6]: 1
- Microbial growth, 2nd Inoculation, 2nd sub-column [6]: 0
- Microbial growth, 1st Inoculation, 1st sub-column [7]: 3
- Microbial growth, 1st Inoculation, 2nd sub-column [7]: 2
- Microbial growth, 2nd Inoculation, 1st sub-column [7]: 3
- Microbial growth, 2nd Inoculation, 2nd sub-column [7]: 2
- Microbial growth, 1st Inoculation, 1st sub-column [8]: 2
- Microbial growth, 1st Inoculation, 2nd sub-column [8]: 2
- Microbial growth, 2nd Inoculation, 1st sub-column [8]: 3
- Microbial growth, 2nd Inoculation, 2nd sub-column [8]: 1
- Microbial growth, 1st Inoculation, 1st sub-column [9]: 2
- Microbial growth, 1st Inoculation, 2nd sub-column [9]: 2
- Microbial growth, 2nd Inoculation, 1st sub-column [9]: 3
- Microbial growth, 2nd Inoculation, 2nd sub-column [9]: 1
- Microbial growth, 1st Inoculation, 1st sub-column [10]: 2
- Microbial growth, 1st Inoculation, 2nd sub-column [10]: 2
- Microbial growth, 2nd Inoculation, 1st sub-column [10]: 3
- Microbial growth, 2nd Inoculation, 2nd sub-column [10]: 1
- Microbial growth, 1st Inoculation, 1st sub-column [11]: 2
- Microbial growth, 1st Inoculation, 2nd sub-column [11]: 2
- Microbial growth, 2nd Inoculation, 1st sub-column [11]: 2
- Microbial growth, 2nd Inoculation, 2nd sub-column [11]: 2
- Microbial growth, 1st Inoculation, 1st sub-column [12]: 2
- Microbial growth, 1st Inoculation, 2nd sub-column [12]: 2
- Microbial growth, 2nd Inoculation, 1st sub-column [12]: 2
- Microbial growth, 2nd Inoculation, 2nd sub-column [12]: 2
- Effective Preservative (ppm) (Vinyl Acrylic Flat paint): >2000 ppm
